Legend:
[1] = biological target: Bromodomain-containing protein 4 (Homo sapiens, UniProt O60885); assay: Displacement of FAM-labeled ZBA248 from BRD4 BD1 (44 to 168 amino acid residues) (unknown origin) expressed in Rosetta2 DE3 cells after 30 mins by fluorescence polarization assay
K562 = assay: cells; type: functional, cell-based; conditions: Homo sapiens, K562, 96 h
[2] = biological target: T1, ATPase family AAA domain-containing protein 2 (Homo sapiens, UniProt Q6PL18); assay: Binding affinity to biotinylated ATAD2A (981 to 1108 amino acid residues) (unknown origin) expressed in Rosetta2 DE3 cells by bio-layer interferometry method
T1 sequence (Q6PL18 whole entry): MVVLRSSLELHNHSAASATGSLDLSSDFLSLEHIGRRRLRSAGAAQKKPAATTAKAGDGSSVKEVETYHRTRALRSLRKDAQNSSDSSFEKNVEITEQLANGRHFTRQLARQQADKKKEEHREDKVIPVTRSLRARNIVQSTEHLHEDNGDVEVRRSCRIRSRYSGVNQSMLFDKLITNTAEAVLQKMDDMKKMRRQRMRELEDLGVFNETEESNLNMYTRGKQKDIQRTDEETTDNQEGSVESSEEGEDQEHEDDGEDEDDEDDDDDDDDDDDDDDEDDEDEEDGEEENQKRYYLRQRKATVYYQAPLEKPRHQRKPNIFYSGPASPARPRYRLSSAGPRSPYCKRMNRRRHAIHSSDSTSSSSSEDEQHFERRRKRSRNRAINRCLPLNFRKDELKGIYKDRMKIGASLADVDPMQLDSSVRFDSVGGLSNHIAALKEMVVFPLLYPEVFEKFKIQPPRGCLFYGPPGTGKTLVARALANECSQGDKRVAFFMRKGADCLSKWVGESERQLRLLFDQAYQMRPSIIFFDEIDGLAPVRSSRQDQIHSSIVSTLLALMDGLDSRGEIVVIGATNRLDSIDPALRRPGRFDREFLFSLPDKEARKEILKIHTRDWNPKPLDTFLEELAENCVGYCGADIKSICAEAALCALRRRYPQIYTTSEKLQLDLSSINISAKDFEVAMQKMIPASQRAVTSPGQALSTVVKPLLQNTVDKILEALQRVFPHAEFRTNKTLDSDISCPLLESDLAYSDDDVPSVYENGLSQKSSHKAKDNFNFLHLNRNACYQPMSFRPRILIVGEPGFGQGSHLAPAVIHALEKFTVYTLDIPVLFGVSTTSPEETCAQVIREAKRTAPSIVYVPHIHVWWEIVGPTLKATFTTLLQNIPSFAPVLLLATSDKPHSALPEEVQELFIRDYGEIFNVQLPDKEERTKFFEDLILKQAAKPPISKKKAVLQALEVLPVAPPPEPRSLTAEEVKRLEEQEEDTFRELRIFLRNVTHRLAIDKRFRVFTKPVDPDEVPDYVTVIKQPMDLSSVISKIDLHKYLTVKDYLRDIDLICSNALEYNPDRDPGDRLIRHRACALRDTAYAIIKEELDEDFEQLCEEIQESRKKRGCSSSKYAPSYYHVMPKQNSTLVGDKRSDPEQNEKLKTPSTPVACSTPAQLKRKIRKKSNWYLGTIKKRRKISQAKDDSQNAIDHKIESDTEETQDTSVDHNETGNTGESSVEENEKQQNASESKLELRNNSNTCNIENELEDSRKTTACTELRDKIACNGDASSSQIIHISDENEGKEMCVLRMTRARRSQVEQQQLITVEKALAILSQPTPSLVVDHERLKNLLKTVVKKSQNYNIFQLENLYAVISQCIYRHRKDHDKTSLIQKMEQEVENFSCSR

[3] = biological target: T2, Transcription intermediary factor 1-alpha (Homo sapiens, UniProt O15164); assay: Binding affinity to biotinylated TRIM24 (790 to 972 amino acid residues) (unknown origin) expressed in Rosetta2 DE3 cells by bio-layer interferometry method
T2 sequence (O15164 whole entry): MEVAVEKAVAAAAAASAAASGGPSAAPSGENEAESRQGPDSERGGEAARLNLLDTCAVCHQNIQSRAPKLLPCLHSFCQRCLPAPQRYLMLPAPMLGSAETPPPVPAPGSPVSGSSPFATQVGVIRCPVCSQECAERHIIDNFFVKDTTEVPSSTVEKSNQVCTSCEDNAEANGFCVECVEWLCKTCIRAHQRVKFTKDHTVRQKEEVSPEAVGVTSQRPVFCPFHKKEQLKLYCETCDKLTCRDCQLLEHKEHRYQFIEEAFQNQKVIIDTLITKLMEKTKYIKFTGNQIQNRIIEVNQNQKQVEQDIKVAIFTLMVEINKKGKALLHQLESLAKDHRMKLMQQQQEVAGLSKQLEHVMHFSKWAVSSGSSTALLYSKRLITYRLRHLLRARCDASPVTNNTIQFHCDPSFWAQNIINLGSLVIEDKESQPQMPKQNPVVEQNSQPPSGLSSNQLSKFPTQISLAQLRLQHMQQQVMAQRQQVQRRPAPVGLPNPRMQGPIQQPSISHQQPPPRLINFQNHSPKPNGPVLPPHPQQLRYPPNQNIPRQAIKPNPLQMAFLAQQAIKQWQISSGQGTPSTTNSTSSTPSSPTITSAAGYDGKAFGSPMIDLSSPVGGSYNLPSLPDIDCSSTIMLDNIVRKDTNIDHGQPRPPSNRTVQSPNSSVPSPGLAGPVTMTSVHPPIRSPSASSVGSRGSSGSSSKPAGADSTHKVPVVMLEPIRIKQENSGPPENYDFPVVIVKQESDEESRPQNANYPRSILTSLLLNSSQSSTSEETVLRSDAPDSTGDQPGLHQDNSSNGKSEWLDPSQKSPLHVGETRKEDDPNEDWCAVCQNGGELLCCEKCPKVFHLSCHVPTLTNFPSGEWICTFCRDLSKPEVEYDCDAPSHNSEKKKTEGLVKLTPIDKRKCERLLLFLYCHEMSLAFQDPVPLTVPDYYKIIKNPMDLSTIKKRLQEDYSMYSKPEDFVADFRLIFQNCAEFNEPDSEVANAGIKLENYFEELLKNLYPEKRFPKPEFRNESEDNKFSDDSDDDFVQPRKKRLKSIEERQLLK

MV4-11 = assay: cells; type: functional, cell-based; conditions: Homo sapiens, MV4-11, 96 h
[4] = biological target: Transcription initiation factor TFIID subunit 1 (Homo sapiens, UniProt P21675); assay: Binding affinity to biotinylated TAF1B2 (155 to 276 amino acid residues) (unknown origin) expressed in Rosetta2 cells by bio-layer interferometry method
[5] = biological target: Bromodomain adjacent to zinc finger domain protein 2B (Homo sapiens, UniProt Q9UIF8); assay: Binding affinity to biotinylated BAZ2B (2054 to 2168 amino acid residues) (unknown origin) expressed in Rosetta2 DE3 cells by bio-layer interferometry method
[6] = biological target: Bromodomain-containing protein 2 (Homo sapiens, UniProt P25440); assay: Binding affinity to biotinylated BRD2 BD2 (349 to 460 amino acid residues) (unknown origin) expressed in Rosetta2 DE3 cells by bio-layer interferometry method
Chain of Bromodomain-containing protein 2 (P25440 whole entry, the tested form may be a part): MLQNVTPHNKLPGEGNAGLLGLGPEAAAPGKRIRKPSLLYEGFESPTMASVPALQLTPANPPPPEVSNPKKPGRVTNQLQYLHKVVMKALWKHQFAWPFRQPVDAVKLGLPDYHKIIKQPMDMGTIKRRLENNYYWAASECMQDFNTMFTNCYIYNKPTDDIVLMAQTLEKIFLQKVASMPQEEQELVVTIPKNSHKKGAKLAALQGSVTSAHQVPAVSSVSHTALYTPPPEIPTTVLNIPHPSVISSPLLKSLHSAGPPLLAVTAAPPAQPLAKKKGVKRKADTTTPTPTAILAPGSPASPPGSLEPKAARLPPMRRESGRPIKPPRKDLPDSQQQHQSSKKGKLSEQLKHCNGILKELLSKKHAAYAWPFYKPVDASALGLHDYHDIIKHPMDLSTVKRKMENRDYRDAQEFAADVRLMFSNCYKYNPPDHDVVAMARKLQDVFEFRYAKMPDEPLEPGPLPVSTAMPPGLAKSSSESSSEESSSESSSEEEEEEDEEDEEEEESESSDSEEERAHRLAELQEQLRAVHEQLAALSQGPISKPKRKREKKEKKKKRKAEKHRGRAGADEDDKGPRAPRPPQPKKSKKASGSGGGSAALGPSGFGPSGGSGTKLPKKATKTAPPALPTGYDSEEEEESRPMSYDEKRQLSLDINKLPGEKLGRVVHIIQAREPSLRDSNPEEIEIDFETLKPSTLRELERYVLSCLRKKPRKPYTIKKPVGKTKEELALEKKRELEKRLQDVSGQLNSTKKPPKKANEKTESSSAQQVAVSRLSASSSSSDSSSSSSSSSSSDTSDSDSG

Chain of Transcription initiation factor TFIID subunit 1 (P21675 whole entry, the tested form may be a part): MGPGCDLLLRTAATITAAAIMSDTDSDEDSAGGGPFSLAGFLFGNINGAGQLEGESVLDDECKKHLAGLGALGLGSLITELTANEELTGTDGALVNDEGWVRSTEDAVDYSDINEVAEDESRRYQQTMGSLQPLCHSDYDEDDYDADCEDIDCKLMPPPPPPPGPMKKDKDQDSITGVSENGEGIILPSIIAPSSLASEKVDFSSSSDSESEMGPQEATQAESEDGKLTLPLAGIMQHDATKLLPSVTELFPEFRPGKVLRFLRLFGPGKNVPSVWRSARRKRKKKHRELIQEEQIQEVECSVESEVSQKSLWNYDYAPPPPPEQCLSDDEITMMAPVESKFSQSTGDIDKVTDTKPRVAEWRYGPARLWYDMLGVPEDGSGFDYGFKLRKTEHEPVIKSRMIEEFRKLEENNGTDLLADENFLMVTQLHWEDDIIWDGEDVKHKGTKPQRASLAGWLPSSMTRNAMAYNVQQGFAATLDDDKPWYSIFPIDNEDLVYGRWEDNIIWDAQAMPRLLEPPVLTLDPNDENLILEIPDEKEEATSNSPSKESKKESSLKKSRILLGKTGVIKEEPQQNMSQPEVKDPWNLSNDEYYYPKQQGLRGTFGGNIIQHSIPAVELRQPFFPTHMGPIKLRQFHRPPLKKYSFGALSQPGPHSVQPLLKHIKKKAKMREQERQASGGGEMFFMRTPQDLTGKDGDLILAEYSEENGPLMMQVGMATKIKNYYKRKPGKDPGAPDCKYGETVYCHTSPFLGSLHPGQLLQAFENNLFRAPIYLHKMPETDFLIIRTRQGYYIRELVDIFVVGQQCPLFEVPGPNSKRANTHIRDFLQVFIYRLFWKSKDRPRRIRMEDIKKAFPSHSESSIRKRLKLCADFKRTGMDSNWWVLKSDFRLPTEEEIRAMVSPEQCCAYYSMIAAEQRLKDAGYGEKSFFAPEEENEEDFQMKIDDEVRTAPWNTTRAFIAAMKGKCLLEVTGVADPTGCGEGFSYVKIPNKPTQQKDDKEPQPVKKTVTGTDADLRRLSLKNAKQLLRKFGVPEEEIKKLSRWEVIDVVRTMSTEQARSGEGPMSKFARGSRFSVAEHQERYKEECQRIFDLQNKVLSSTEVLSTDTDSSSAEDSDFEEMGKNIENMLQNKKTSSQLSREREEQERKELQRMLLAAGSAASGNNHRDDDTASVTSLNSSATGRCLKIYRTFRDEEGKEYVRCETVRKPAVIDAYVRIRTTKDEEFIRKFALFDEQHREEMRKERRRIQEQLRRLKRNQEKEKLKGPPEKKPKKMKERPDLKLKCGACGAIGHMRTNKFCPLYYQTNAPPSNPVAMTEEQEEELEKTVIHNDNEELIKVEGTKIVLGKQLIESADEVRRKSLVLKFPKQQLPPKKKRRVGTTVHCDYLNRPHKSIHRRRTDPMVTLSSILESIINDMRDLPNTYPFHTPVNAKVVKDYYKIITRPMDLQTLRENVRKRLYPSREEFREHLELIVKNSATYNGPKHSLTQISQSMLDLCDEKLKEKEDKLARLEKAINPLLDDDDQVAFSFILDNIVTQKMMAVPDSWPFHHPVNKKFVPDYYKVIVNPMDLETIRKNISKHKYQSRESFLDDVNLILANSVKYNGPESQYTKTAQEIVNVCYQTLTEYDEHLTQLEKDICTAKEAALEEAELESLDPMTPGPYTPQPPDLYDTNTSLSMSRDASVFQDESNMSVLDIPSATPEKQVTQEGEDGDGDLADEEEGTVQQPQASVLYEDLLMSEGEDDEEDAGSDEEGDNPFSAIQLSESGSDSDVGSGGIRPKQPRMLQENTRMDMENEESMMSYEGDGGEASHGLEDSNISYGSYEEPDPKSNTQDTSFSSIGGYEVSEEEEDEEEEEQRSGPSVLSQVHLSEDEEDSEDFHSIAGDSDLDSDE
Chain of Bromodomain adjacent to zinc finger domain protein 2B (Q9UIF8 whole entry, the tested form may be a part): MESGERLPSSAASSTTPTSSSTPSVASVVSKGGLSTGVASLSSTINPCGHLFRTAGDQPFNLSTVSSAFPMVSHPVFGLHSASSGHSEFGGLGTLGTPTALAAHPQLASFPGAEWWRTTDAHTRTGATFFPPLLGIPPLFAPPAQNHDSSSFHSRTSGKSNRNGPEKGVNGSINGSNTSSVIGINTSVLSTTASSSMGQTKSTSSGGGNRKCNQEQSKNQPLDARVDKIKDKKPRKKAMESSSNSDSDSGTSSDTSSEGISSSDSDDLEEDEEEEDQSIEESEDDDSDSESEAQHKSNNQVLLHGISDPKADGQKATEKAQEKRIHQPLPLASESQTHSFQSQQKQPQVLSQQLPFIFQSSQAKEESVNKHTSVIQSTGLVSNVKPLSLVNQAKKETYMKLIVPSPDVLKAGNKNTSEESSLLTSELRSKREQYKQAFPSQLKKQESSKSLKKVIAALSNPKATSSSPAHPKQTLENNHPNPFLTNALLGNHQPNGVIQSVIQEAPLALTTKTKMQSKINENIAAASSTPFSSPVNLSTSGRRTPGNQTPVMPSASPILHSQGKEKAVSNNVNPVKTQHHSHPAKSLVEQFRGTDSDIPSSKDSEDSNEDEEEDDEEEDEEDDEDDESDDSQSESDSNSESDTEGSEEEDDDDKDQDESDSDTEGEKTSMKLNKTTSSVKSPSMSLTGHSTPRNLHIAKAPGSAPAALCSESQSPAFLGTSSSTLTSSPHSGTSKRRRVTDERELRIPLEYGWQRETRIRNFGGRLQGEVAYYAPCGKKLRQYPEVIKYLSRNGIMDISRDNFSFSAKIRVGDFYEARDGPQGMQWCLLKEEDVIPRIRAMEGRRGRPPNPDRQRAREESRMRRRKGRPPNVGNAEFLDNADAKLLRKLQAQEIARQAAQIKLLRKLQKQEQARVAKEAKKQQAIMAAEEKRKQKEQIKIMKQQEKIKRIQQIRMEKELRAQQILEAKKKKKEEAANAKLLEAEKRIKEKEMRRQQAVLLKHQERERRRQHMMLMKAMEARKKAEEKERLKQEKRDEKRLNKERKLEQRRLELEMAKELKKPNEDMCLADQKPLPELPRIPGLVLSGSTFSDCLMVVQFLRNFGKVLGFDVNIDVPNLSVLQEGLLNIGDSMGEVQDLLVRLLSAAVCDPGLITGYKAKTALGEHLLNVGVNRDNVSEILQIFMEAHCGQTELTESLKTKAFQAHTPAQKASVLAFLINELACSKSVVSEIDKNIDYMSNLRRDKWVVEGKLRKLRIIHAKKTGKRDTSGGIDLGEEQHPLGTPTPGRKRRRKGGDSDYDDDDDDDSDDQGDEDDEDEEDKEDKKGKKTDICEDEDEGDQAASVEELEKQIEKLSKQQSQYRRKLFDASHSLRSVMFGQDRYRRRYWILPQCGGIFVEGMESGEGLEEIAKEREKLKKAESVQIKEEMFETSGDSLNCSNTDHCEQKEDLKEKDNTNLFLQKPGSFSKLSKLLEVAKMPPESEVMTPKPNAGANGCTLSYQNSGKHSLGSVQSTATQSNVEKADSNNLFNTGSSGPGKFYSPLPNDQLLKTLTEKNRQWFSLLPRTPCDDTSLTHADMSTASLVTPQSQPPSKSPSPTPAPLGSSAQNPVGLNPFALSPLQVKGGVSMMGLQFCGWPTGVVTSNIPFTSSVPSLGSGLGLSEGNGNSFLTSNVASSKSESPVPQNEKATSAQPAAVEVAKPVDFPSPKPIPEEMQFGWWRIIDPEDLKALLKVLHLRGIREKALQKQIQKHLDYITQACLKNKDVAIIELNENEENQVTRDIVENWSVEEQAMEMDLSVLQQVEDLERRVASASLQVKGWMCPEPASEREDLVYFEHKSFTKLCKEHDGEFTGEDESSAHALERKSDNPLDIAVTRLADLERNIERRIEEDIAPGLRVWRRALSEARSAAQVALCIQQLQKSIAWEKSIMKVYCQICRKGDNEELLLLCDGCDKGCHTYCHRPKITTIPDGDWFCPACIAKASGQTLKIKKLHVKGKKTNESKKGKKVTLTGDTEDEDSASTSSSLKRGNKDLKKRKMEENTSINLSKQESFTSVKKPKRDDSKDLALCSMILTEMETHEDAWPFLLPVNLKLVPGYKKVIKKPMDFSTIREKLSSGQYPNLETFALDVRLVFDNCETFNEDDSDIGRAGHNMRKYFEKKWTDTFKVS

## COc1cc2c(cc1-c1c(C)noc1C)[nH]c1ccnc(-c3c(C4CC4)n[nH]c3C)c12
[1]
  IC50: 0.0755 µM
  Ki: 0.0247 µM
K562
  IC50: > 2 µM
[2]
  Kd: > 10 µM
[3]
  Kd: 10 µM
MV4-11
  IC50: 0.02 µM
[4]
  Kd: > 10 µM
[5]
  Kd: > 10 µM
[6]
  Kd: 0.0296 µM
